Test results published in patent US20100022483A1, “Substituted Tetracycline Compounds” (Paratek Pharmaceuticals, Inc., priority 2008, published 2010).
Converted amounts (≈) assume the structure as drawn. Read-outs that look alike come from different tables or passages of the source.

Legend:
[1] = Mammalian cytotoxicity assay (resazurin), COS-1 cells; type: cell-based; conditions: African green monkey, read-out: Cytotox. COS-1
Description: (§1) COS-1 and CHO-K1 cell suspensions were prepared, seeded into 96-well tissue culture treated black-walled microtiter plates (density determined by cell line), and incubated overnight at 37° C., in 5% CO2 and approximately 95% humidity. The following day, serial dilutions of compound were prepared under sterile conditions and transferred to cell plates. Cell/Compound plates were incubated under the above conditions for 24 hours. Following the incubation period, media/compound was aspirated and 50 μl of resazurin (0.042 mg/ml in PBS w/Ca and Mg) is added. The plates were then incubated under the above conditions for 2 hours and then placed in the dark at room temperature for an additional 30 minutes. Fluorescence measurements were taken (excitation 535 nm, emission 590 nm). The IC50 (concentration of compound causing 50% growth inhibition) was then calculated. Table 3 includes IC50 data for several substituted tetracycline compounds.

gram negative bacteria = test: In vitro anti-bacterial activity assay (broth dilution MIC), gram negative bacteria; type: cell-based, E. coli
From the text: (§2) Bacterial infections may be caused by a wide variety of gram positive and gram negative bacteria. Some of the compounds of the invention are useful as antibiotics against organisms which are resistant and/or sensitive to other tetracycline compounds. The antibiotic activity of the tetracycline compounds of the invention may by using the in vitro standard broth dilution method described in Waitz, J. A., CLSI, Document M7-A2, vol. 10, no. 8, pp. 13-20, 2nd edition, Villanova, Pa. (1990).
(§3) The following assay was used to determine the efficacy of the tetracycline compounds against gram positive and gram negative bacteria. 2 mg of each compound was dissolved in 100 μl of DMSO. […] The tetracycline compound solutions were diluted to 50 μL volumes, with a test compound concentration of 0.098 μg/ml. Optical density (OD) determinations were made from fresh log-phase broth cultures of the test strains. Dilutions were made to achieve a final cell density of […] CFU/ml. At OD=1, cell densities for different genera were approximately:
(§4) 50 μl of the cell suspensions were added to each well of microtiter plates. The final cell density was approximately 5×10^5 CFU/ml. These plates were incubated at 35° C. in an ambient air incubator for approximately 18 hours. The plates were read with a microplate reader and were visually inspected when necessary. The MIC was defined as the lowest concentration of the tetracycline compound that inhibits growth. Table 3 includes MIC data for several substituted tetracycline compounds.

in vitro = type: cell-based; conditions: Chinese hamster, Cytotox. CHO-K1
Description: as §1

gram positive bacteria = test: In vitro anti-bacterial activity assay (broth dilution MIC), gram positive bacteria; type: cell-based, S. aureus; conditions: 18 h
From the text: as §2, §3, §4

3T3 fibroblast cells = test: In vitro phototoxicity assay (neutral red; UV light-treated vs dark control plates); type: cell-based; conditions: for Photo Toxicity UV Tox50: UV light 50 minutes; for Photo Toxicity Dark Tox50: dark control plate
Description: 3T3 fibroblast cells were harvested and plated at a concentration of 1×10^5 cells/mL and the plates were incubated overnight at 37° C., in 5% CO2 and approximately 95% humidity. On the following day the medium was removed from the plates and replaced with Hanks' Balanced Salt Solution (HBSS). Compound dilutions were made in HBSS and added to the plates. For each compound tested, a duplicate plate was prepared that was not exposed to light as a control for compound toxicity. Plates were then incubated in a dark drawer (for controls), or under UV light (meter reading of 1.6-1.8 mW/cm^2) for 50 minutes. Cells were then washed with HBSS, fresh medium was added, and plates were incubated overnight as described above. The following day neutral red was added as an indicator of cell viability. The plates were then incubated for an additional 3 hours. Cells were then washed with HBSS and blotted on absorbent paper to remove excess liquid. A solution of 50% EtOH, 10% glacial acetic acid was added and after 20 minutes incubation the plate's absorbance at 535 nm was read using a Wallac Victor 5 spectrophotometer. The phototoxicity reflected the difference between the light-treated and control cultures. Table 3 includes phototoxicity (μM) data for several substituted tetracycline compounds.

[2] = Escherichia coli, 18 h, E. coli D1 209, read-out: Median MIC's G− E. coli D1 209
[3] = Staphylococcus aureus, S. aureus MRSA5, read-out: Median MIC's G+ S. aureus MRSA5
[4] = Staphylococcus aureus, S. aureus RN450, read-out: Median MIC's G+ S. aureus RN450
[5] = Streptococcus pneumoniae, S. pneumoniae 157E-Strep, read-out: Median MIC's G+ S. pneumoniae 157E-Strep
[6] = Escherichia coli, 18 h, E. coli MG 1655, read-out: Median MIC's G− E. coli MG 1655
[7] = Escherichia coli, ATCC25922, 18 h, E. coli ATCC 25922, read-out: Median MIC's G− E. coli ATCC 25922
[8] = Pseudomonas aeruginosa, 18 h, P. aeruginosa K201 PAO6609, read-out: Median MIC's G− P. aeruginosa K201 PAO6609

Structure (SMILES)	IC50 at 24 h [1] [µM]	MIC (gram negative bacteria; [2]) [µg/mL]	IC50 at 24 h (in vitro) [µM]	MIC (gram positive bacteria; [3]) [µg/mL]	MIC (gram positive bacteria; [4]) [µg/mL]	MIC (gram positive bacteria; [5]) [µg/mL]	Photo Toxicity UV Tox50 (3T3 fibroblast cells) [µM]	Photo Toxicity Dark Tox50 (3T3 fibroblast cells) [µM]	MIC (gram negative bacteria; [6]) [µg/mL]	MIC (gram negative bacteria; [7]) [µg/mL]	MIC (gram negative bacteria; [8]) [µg/mL]	MIC (gram negative bacteria; Escherichia coli, 18 h, read-out: Median MIC's G− E. coli D1 209, E. coli D1 209) [µg/mL]
COc1ccc(CNCc2ccc(-c3ccc(O)c4c3C[C@H]3C[C@H]5[C@H](N(C)C)C(O)=C(C(N)=O)C(=O)[C@@]5(O)C(O)=C3C4=O)cc2)cc1 (stereo in doubt) [AW]	< 1.97	1 (≈ 1.56 µM)	13.5	1 (≈ 1.56 µM)	0.06 (≈ 0.0938 µM)	0.06 (≈ 0.0938 µM)	–	–	–	–	–	–
CO/N=C/c1ccc(-c2ccc(O)c3c2C[C@H]2C[C@H]4[C@H](N(C)C)C(O)=C(C(N)=O)C(=O)[C@@]4(O)C(O)=C2C3=O)o1 (stereo in doubt) [AZ]	< 2.44	64 (≈ 119 µM)	3.04	1 (≈ 1.86 µM)	0.13 (≈ 0.242 µM)	0.06 (≈ 0.112 µM)	>156.79	>156.79	–	–	–	–
CN(C)[C@H]1C(O)=C(C(N)=O)C(=O)[C@@]2(O)C(O)=C3C(=O)c4c(O)ccc(-c5cccc(C(N)=O)c5)c4C[C@H]3C[C@@H]12 (stereo in doubt) [B]	> 15.7	64 (≈ 120 µM)	> 15.7	64 (≈ 120 µM)	2 (≈ 3.75 µM)	2 (≈ 3.75 µM)	>156.64	>156.64	64 (≈ 120 µM)	64 (≈ 120 µM)	64 (≈ 120 µM)	–
CN(C)CCNC(=O)c1cccc(-c2ccc(O)c3c2C[C@H]2C[C@H]4[C@H](N(C)C)C(O)=C(C(N)=O)C(=O)[C@@]4(O)C(O)=C2C3=O)c1 [AB]	> 200	64 (≈ 106 µM)	> 200	32 (≈ 52.9 µM)	0.5 (≈ 0.827 µM)	0.25 (≈ 0.413 µM)	>200	>200	16 (≈ 26.5 µM)	32 (≈ 52.9 µM)	64 (≈ 106 µM)	–
CN(C)C(=O)c1cccc(-c2ccc(O)c3c2C[C@H]2C[C@H]4[C@H](N(C)C)C(O)=C(C(N)=O)C(=O)[C@@]4(O)C(O)=C2C3=O)c1 [AC]	> 37.6	64 (≈ 114 µM)	> 9.4	16 (≈ 28.5 µM)	0.25 (≈ 0.445 µM)	–	–	–	–	–	–	–
CN(C)CCNC(=O)c1ccc(-c2ccc(O)c3c2C[C@H]2C[C@H]4[C@H](N(C)C)C(O)=C(C(N)=O)C(=O)[C@@]4(O)C(O)=C2C3=O)cc1 [AD]	> 43.5	64 (≈ 106 µM)	> 43.5	16 (≈ 26.5 µM)	0.25 (≈ 0.413 µM)	0.13 (≈ 0.215 µM)	135.17	>140.2	8 (≈ 13.2 µM)	16 (≈ 26.5 µM)	64 (≈ 106 µM)	–
CN(C)[C@@H]1C(O)=C(C(N)=O)C(=O)[C@@]2(O)C(O)=C3C(=O)c4c(O)ccc(-c5cccc(C(N)=O)c5)c4C[C@H]3C[C@@H]12 [AE]	> 15.7	64 (≈ 120 µM)	> 15.7	4 (≈ 7.5 µM)	0.06 (≈ 0.112 µM)	0.06 (≈ 0.112 µM)	>156.64	>156.64	4 (≈ 7.5 µM)	4 (≈ 7.5 µM)	64 (≈ 120 µM)	–
CN(C)[C@@H]1C(O)=C(C(N)=O)C(=O)[C@@]2(O)C(O)=C3C(=O)c4c(O)ccc(-c5ccc(NC(=O)CNC(C)(C)C)cc5)c4C[C@H]3C[C@@H]12 [AF]	> 13.7	2 (≈ 3.23 µM)	> 13.7	4 (≈ 6.47 µM)	0.06 (≈ 0.097 µM)	0.06 (≈ 0.097 µM)	>137.36	>137.36	–	–	–	–
COCCNCC(=O)c1ccc(O)c2c1C[C@H]1C[C@H]3[C@H](N(C)C)C(O)=C(C(N)=O)C(=O)[C@@]3(O)C(O)=C1C2=O [AG]	> 158	64 (≈ 121 µM)	> 158	64 (≈ 121 µM)	4 (≈ 7.55 µM)	4 (≈ 7.55 µM)	>157.68	>157.68	32 (≈ 60.4 µM)	32 (≈ 60.4 µM)	64 (≈ 121 µM)	–
CN(C)CCNC(=O)c1ccc(O)c2c1C[C@H]1C[C@H]3[C@H](N(C)C)C(O)=C(C(N)=O)C(=O)[C@@]3(O)C(O)=C1C2=O [AH]	> 126	64 (≈ 121 µM)	> 126	64 (≈ 121 µM)	16 (≈ 30.3 µM)	8 (≈ 15.1 µM)	>125.56	>125.56	64 (≈ 121 µM)	64 (≈ 121 µM)	64 (≈ 121 µM)	–
CN(C)[C@@H]1C(O)=C(C(N)=O)C(=O)[C@@]2(O)C(O)=C3C(=O)c4c(O)ccc(-c5ccccc5)c4C[C@H]3C[C@@H]12 [AQ]	6.06	8 (≈ 16.3 µM)	6.91	0.25 (≈ 0.51 µM)	0.06 (≈ 0.122 µM)	0.06 (≈ 0.122 µM)	–	–	–	–	–	–
COC(=O)c1ccc(-c2ccc(O)c3c2C[C@H]2C[C@H]4[C@H](N(C)C)C(O)=C(C(N)=O)C(=O)[C@@]4(O)C(O)=C2C3=O)cc1 [AR]	4.8	–	< 2.53	0.315 (≈ 0.574 µM)	0.06 (≈ 0.109 µM)	0.25 (≈ 0.456 µM)	–	–	–	–	–	64 (≈ 117 µM)
CC(=O)c1cccc(-c2ccc(O)c3c2C[C@H]2C[C@H]4[C@H](N(C)C)C(O)=C(C(N)=O)C(=O)[C@@]4(O)C(O)=C2C3=O)c1 [AS]	–	64 (≈ 120 µM)	–	0.5 (≈ 0.939 µM)	0.06 (≈ 0.113 µM)	0.06 (≈ 0.113 µM)	–	–	–	–	–	–
CC(C)OC(=O)c1cccc(-c2ccc(O)c3c2C[C@H]2C[C@H]4[C@H](N(C)C)C(O)=C(C(N)=O)C(=O)[C@@]4(O)C(O)=C2C3=O)c1 [AU]	4.56	64 (≈ 111 µM)	6.12	1 (≈ 1.73 µM)	0.25 (≈ 0.434 µM)	0.5 (≈ 0.867 µM)	–	–	–	–	–	–
CN(C)[C@@H]1C(O)=C(C(N)=O)C(=O)[C@@]2(O)C(O)=C3C(=O)c4c(O)ccc(-c5ccc(CN6CCOCC6)o5)c4C[C@H]3C[C@@H]12 [AX]	27.1	8 (≈ 13.8 µM)	> 32.6	4 (≈ 6.9 µM)	0.06 (≈ 0.104 µM)	0.06 (≈ 0.104 µM)	–	–	–	–	–	–
CN1CCN(Cc2ccc(-c3ccc(O)c4c3C[C@H]3C[C@H]5[C@@H](N(C)C)C(O)=C(C(N)=O)C(=O)[C@@]5(O)C(O)=C3C4=O)o2)CC1 [AY]	> 32	64 (≈ 108 µM)	> 32	32 (≈ 54 µM)	0.5 (≈ 0.844 µM)	0.25 (≈ 0.422 µM)	–	–	–	–	–	–
CN(C)c1cc(-c2ccc(CN3CCN(CCO)CC3)o2)c(O)c2c1C[C@H]1C[C@H]3[C@H](N(C)C)C(O)=C(C(N)=O)C(=O)[C@@]3(O)C(O)=C1C2=O [BA]	> 111	64 (≈ 96.1 µM)	> 111	64 (≈ 96.1 µM)	1 (≈ 1.5 µM)	2 (≈ 3 µM)	–	–	–	–	–	–
COCc1cccc(-c2ccc(O)c3c2C[C@H]2C[C@H]4[C@H](N(C)C)C(O)=C(C(N)=O)C(=O)[C@@]4(O)C(O)=C2C3=O)c1 [DB]	10.4	64 (≈ 120 µM)	13.2	0.5 (≈ 0.935 µM)	0.06 (≈ 0.112 µM)	0.06 (≈ 0.112 µM)	–	–	–	–	–	–
